From patent US20260183316A1, “CANNABICHROMENE-TYPE CANNABINOID COMPOSITIONS, METHODS AND USES THEREOF” (Cronos Group Inc., priority 2022, published 2026)
Several values for one entry are separate records, joined by “and”; a condition that tells them apart may be missing. Equal entries are not always repeated.

Tests used:
C57BL/6 mice [1] = assay: Open field test (OFT): locomotion and time in central quadrant; format: in vivo; settings: for dose-dependent reduction in movement in the OFT / time spent in the center of the OFT (anxiety-reducing effect): 30 minutes after administration, 0.3-30 mg/kg p.o.; for ED50: po, 0.5 h; for Movement Emax ± S.E.M.: OFT distance in 5 minutes
Description: (§1) Female and male C57BL/6 mice between 8 and 12 weeks of age were used for these studies. Animals were group housed at the Laboratory Animal Services Unit (LASU) at the University of Saskatchewan (5 mice/cage for females, 3 mice/cage for males) with a standard 12:12 light-dark cycle, ad libitum access to food and water, and environmental enrichment. All compounds were prepared in a vehicle composed of ethanol and kolliphor in saline (1:1:8) for i.v. tail vein injections or olive oil for oral gavage (p.o.) at the doses indicated in description of the figures. Compounds were administered at the doses indicated in mg/kg body weight, with body weights being measured on the same day as drug administration. Experimenters were blinded to treatment for all assessments and analyses. Animals were purchased from Charles River Labs (Senneville, QC), rather than bred, to reduce animal numbers. At the end of experiments, mice were euthanized via isoflurane overdose and cardiac puncture. In all cases, experiments were performed with the approval of the University Animal Care Committee (UACC) at the University of Saskatchewan (Animal Use Protocol #20200043) and in keeping with the guidelines of the Canadian Council on Animal Care (CCAC).
(§2) Mice were assessed in the ‘tetrad’ battery of physiological and behavioural assessments. This included, in the following order: a bar holding assessment of catalepsy, rectal thermometer assessment of body temperature, a test of nociception in the warm water tail flick assay, and a test of locomotion and anxiety in the open field test (OFT). The precise timing of each measurement are stated in description of the figures. The same animals were used for all four measures of the tetrad.
Locomotion was measured in the open field test (OFT) after compound administration. Mice were placed in the centre of an open chamber measuring 1 m×1 m for 5 minutes. Total distance travelled and time spent in the central quadrant of the field are recorded on a video camera, and the video analyzed in EthoVision XT (Noldus Information Technology Inc., Leesburg, VA).

[2] = oral gavage once daily for 14 days, cited from earlier work
rodents = settings: intravenously administered, high doses (30 and 100 mg/kg); cited from earlier work
C57BL/6 mice [3] = assay: Body temperature by rectal thermometer, tetrad; format: in vivo; settings: for dose-dependent hypothermia: 10 min after administration, 0.3-30 mg/kg p.o.; for Body temperature Emax ± S.E.M.: change in body temperature 10 min after 0.3-30 mg/kg p.o.
Description: as §1, §2
Body temperature was measured after compound administration by using a rectal thermometer. Activation of CB1R is associated with reduced body temperature.

C57BL/6 mice [4] = assay: y-maze, modelled exploratory behaviour and cognition; format: in vivo; settings: 10 mg/kg p.o., 40 min after administration
Description: (§3) In addition to the physiological assessment of the tetrad, mice were subjected to several behavioural assessments detailed here. These experiments followed a set timeline beginning 30 minutes after compound administration, based on an approximation that the maximum blood concentration of drug occurred 30-60 minutes after animals had received oral gavage. In these experiments the same type of mice were used for elevated plus maze, y-maze, and forced swim test back-to-back-to-back; however, this was a separate cohort of mice from those used in tetrad or PK experiments.
Modelled exploratory behaviour and cognition—the y-maze: The y-maze consists of three […] long×15 cm wide arms equally spaced 120° apart. Mice were allowed to habituate to the y-maze with one arm closed off (the novel arm) for 15 minutes 1 day prior to the experiment. On testing day, mice were placed in the centre space the y-maze facing the novel arm. Movement and arm entries were recorded for 5 min beginning 40 minutes after drug administration. Total distance travelled, arm entries, and % correct alternations between each arm were recorded on a video camera and scored by an individual blinded to treatment group.

C57BL/6 mice [5] = assay: Nociception in the warm water tail flick assay, tetrad; format: in vivo; settings: for ED50: Mus musculus, po, 20 min, tail flick 52° C., read-out: Pain relief ED50 (95% C.I.); for ED50 / Pain relief Emax ± S.E.M.: 20 min after 0.3-30 mg/kg p.o.; for Pain relief Emax ± S.E.M.: tail flick % MPE 20 sec; for dose-dependent reduction in pain sensation: warm water tail flick 20 minutes after administration, 0.3-30 mg/kg p.o.
Description: as §1, §2
Activation of CB1R is associated with elevated tail-flick latency (i.e. less nociception as indicated by the mouse keeping their tail in the water longer).

C57BL/6 mice [6] = assay: Elevated plus maze (EPM), modelled anxiety; format: in vivo; settings: 10 mg/kg p.o., 30 minutes after treatment; for time spent in the closed arms of the EPM: post-hoc no differences
Description: as §3
Modelled anxiety—the elevated plus maze: Mice were placed in the centre space of an elevated plus maze (EPM) standing 45 cm above the floor and having 2 closed-walled arms and 2 open arms each measuring 45 cm long. Mice were placed facing an open arm and their movement recorded for 5 minutes beginning 30 minutes after drug administration. Total distance travelled, arm entries, and time spent in each arm was recorded on a video camera and scored by an individual blinded to treatment group.

C57BL/6 mice [7] = assay: Catalepsy in the bar (ring) holding assay, tetrad; format: in vivo; settings: for Lethargy Emax ± S.E.M.: catalepsy % MPE 60 sec, 5 min after 0.3-30 mg/kg p.o.; for dose-dependent catalepsy: ring holding assay 5 minutes after treatment, 0.3-30 mg/kg p.o.
Description: as §1, §2
Catalepsy was assessed in the bar holding assay after compound administration with mice placed so that their forepaws clasped a 0.7-cm ring clamp 4.5 cm above the surface of the testing space. The length of time the ring was held was recorded up to 60 sec (i.e., percent maximum possible effect [MPE] 60 seconds) with the trial ending if the mouse turned its […] or body or made three consecutive escape attempts. Activation of CB1R is associated with increased catalepsy.

Long Evans rats = settings: CBC 3-30 mg/kg following D9-THC 3 mg/kg intraperitoneal; cited from earlier work
[8] = Pharmacokinetic measurement of CBC in blood (HPLC-MS/MS); settings: analyte CBC
[9] = Pharmacokinetic measurement of THC in blood (HPLC-MS/MS); settings: analyte THC
C57BL/6 mice [10] = assay: Forced swim test (FST), modelled behavioural despair and resiliency; format: in vivo; settings: 10 mg/kg p.o., 50 min after administration
Description: as §3
Modelled behavioural despair and resiliency—the forced swim test: Mice were placed in 800 mL of 22° C. water in a clear beaker with a 10 cm diameter such that the depth of water was approximately 10-11 cm. Mice were allowed to swim and their movement recorded for 5 minutes beginning 50 minutes after drug administration. Time spent swimming and time spent immobile was recorded on a video camera and scored by an individual blinded to treatment group.

dogs = settings: cited from earlier work
[11] = Mus musculus, OFT locomotion 30 min after 0.3-30 mg/kg p.o., read-out: Movement ED50 (95% C.I.)
[12] = time in central quadrant of OFT, 30 min after 0.3-30 mg/kg p.o.

In the case of `CCCCCc1cc(O)c2c(c1)OC(C)(CCC=C(C)C)C=C2` (racemic) [CBC, cannabichromene], the “dose-dependent reduction in movement in the OFT” value (C57BL/6 mice [1]) is reported as “dose-dependent reduction in movement”, the “time spent in the center of the OFT (anxiety-reducing effect)” value (C57BL/6 mice [1]) is reported as “anxiety-reducing effect” and the ED50 (C57BL/6 mice [1]; [11]) is reported as 35 mg/kg. For the same compound, the “Movement Emax ± S.E.M.” value (C57BL/6 mice [1]; 30 min after 0.3-30 mg/kg p.o.) was 1,600 ± 340 cm, the “Anxiety-reduction Emax ± S.E.M.” value (C57BL/6 mice [1]; [12]) was 32 ± 7.2 s and the “concentrations in brain tissue” value [2] was “highest concentrations in brain tissue”. For the same compound, the “maximum observed concentration and AUC in plasma” value ([2]; of the four cannabinoids tested) was “highest maximum observed concentration and AUC”, the tetrad effects (rodents) was “produced locomotor suppression, catalepsy, and hypothermia consistently at high doses” and the dose-dependent hypothermia (C57BL/6 mice [3]) was “no dose-dependent hypothermia”. The “Body temperature Emax ± S.E.M.” value (C57BL/6 mice [3]) was 0.53 ± 0.27 °C, the “% correct alternations in the y-maze” value (C57BL/6 mice [4]) was “increased % correct alternations compared to vehicle” and the ED50 (C57BL/6 mice [5]) was over 30 mg/kg. The “Pain relief Emax ± S.E.M.” value (C57BL/6 mice [5]) was 37 ± 13%, the “dose-dependent reduction in pain sensation” value (C57BL/6 mice [5]) was “dose-dependent pain-relieving effects” and the “open arm entries in the EPM” value (C57BL/6 mice [6]) was “trend toward CBC producing more open arm entries than other groups, this was not statistically significant”. The “time spent in the closed arms of the EPM” value (C57BL/6 mice [6]) was “trend toward less time spent in the closed arms”, the “Lethargy Emax ± S.E.M.” value (C57BL/6 mice [7]) was 1.1 ± 0.16 % and the dose-dependent catalepsy (C57BL/6 mice [7]) was “no dose-dependent catalepsy”. For the same compound, the “perceptual effects of D9-THC” value (Long Evans rats) was “did notsignificantly alter the perceptual effects of D9-THC”, the response rates (Long Evans rats) was “decrease response rates” and the F ([8]; 10 mg/kg i.v., Combined) was 100%. The F ([8]; 10 mg/kg i.v., Female) was 100%, the F ([8]; 10 mg/kg i.v., Male) was 100% and the F ([8]; 10 mg/kg p.o., Combined) was 39%. It also gave an F ([8]; 10 mg/kg p.o., Female) of 53% and an F ([8]; 10 mg/kg p.o., Male) of 27%.
In the case of `CCCCCc1cc(O)c2c(c1)OC(C)(C)[C@@H]1CCC(C)=C[C@@H]21` [THC, tetrahydrocannabinol], the “dose-dependent reduction in movement in the OFT” value (C57BL/6 mice [1]) is reported as “dose-dependent reduction in movement”, the “time spent in the center of the OFT (anxiety-reducing effect)” value (C57BL/6 mice [1]) is reported as “dose-dependent increase in the total time spent in the center of the OFT” and the ED50 (C57BL/6 mice [1]; [11]) is reported as about 6.6 mg/kg. For the same compound, the ED50 (C57BL/6 mice [1]; Mus musculus, time in central quadrant of OFT, 30 min after 0.3-30 mg/kg p.o., read-out: Anxiety-reduction ED50 (95% C.I.)) was over 30 mg/kg, the Emax (C57BL/6 mice [1]; Mus musculus, OFT, versus vehicle-treated level of approximately 3,300 cm in 5 minutes, read-out: reduction in movement at maximum effect) was 48% and the “Movement Emax ± S.E.M.” value (C57BL/6 mice [1]; 30 min after 0.3-30 mg/kg p.o.) was 1,700 cm and 1,700 ± 980 cm. For the same compound, the “Anxiety-reduction Emax ± S.E.M.” value (C57BL/6 mice [1]; [12]) was 81 ± 72 s, the F ([9]; 10 mg/kg i.v., Combined) was 100% and the F ([9]; 10 mg/kg i.v., Female) was 100%. For the same compound, the F ([9]; 10 mg/kg i.v., Male) was 100%, the F ([9]; 10 mg/kg p.o., Combined) was 15% and the F ([9]; 10 mg/kg p.o., Female) was 33%. The F ([9]; 10 mg/kg p.o., Male) was 3.7%, the dose-dependent hypothermia (C57BL/6 mice [3]) was “dose-dependent hypothermia” and the ED50 (C57BL/6 mice [3]; Mus musculus, po, 10 min, 10 min after 0.3-30 mg/kg p.o., read-out: Body temperature ED50 (95% C.I.)) was about 0.2 mg/kg. For the same compound, the “Body temperature Emax ± S.E.M.” value (C57BL/6 mice [3]) was −2.8 °C and −2.8 ± 0.20 °C, the “% correct alternations in the y-maze” value (C57BL/6 mice [4]) was “appeared to reduce correct alternations” and the “overall locomotion in the y-maze” value (C57BL/6 mice [4]) was “reduced overall locomotion”. The “total arm entries in the y-maze” value (C57BL/6 mice [4]) was “lower”, the ED50 (C57BL/6 mice [5]) was about 3.8 mg/kg and the “Pain relief Emax ± S.E.M.” value (C57BL/6 mice [5]) was 57% and 57 ± 16%. For the same compound, the “dose-dependent reduction in pain sensation” value (C57BL/6 mice [5]) was “dose-dependent reduction in pain sensation”, the “overall movement in the EPM” value (C57BL/6 mice [6]) was “reduced overall movement in the EPM, although this change was not statistically significant” and the “time in the center of the EPM” value (C57BL/6 mice [6]) was “more time in the center compared to 1:6.92 (CBC:THC)”. For the same compound, the “time in the open arms of the EPM” value (C57BL/6 mice [6]; not statistically significant) was “appeared to suppress time in the open arms”, the “time spent in the closed arms of the EPM” value (C57BL/6 mice [6]) was “trend toward less time spent in the closed arms” and the ED50 (C57BL/6 mice [7]; Mus musculus, po, 5 min, catalepsy 5 min after 0.3-30 mg/kg p.o., male and female combined, read-out: Lethargy ED50 (95% C.I.)) was about 12 mg/kg. The “Lethargy Emax ± S.E.M.” value (C57BL/6 mice [7]) was 76% and 76 ± 16%, the dose-dependent catalepsy (C57BL/6 mice [7]) was “increasing catalepsy in a dose-dependent manner” and the “time swimming and time immobile in the FST compared to vehicle” value (C57BL/6 mice [10]) was “further suppressed swimming time and increased immobile time”.
For `CCCCCc1cc(OC(C)=O)c2c(c1)OC(C)(C)[C@@H]1CCC(C)=C[C@@H]21` [THC-OAc, tetrahydrocannabinol-o-acetate], the “degree of ataxia compared with Δ9-THC” value (dogs) is given as 2 fold.
